Laboratory results taken from US6037490A, “Boron-containing amino carboxylic acid compounds and uses thereof” (priority 1997, dated 2000).
Entries after “also recorded” stand apart in the source; their conditions may differ. Like-named read-outs stand apart in the source and are kept apart here.

How the values were obtained:
tumor cells [1] = conditions: in vivo; cited from earlier work
A549 lung cancer cells [2] = assay: Cellular boron uptake by inductively coupled plasma mass spectroscopy; type: cell-based
Protocol: The measurement of total cellular boron was made using inductively coupled mass spectrometry. Boron concentrations were measured against a calibration curve generated with a series of NIST traceable standards. Yttrium and indium (20 ng/ml) internal standards were employed to correct for drift. Analyte recoveries were monitored by the addition of boron spikes (20 ng/ml) to the samples. Analyte response was corrected accordingly. Finally, a boron standard of 60 ng/ml was utilized to ensure continued calibration. […] The lung cancer cell culture with boron exposed cells was washed by centrifugation twice, and the supernate was removed by suction prior to chemical analysis. […] All the reagents for sample preparation were analytical grade. Concentrated nitric acid (1-2 ml) and 30% hydrogen peroxide was applied to the cells.
The nitric acid-hydrogen peroxide cocktail was allowed 96 hours for cellular digestion in tubes that facilitated the venting of generated gases. Intermittent stirring was also performed on the sample tubes. All contents were transformed to boron-free tubes and the final volume was adjusted with distilled water to a 10 ml total volume for each sample tested.

A549 lung cancer cells [3] = assay: Neutron irradiation (252Cf) cell survival, kill constant; type: cell-based; conditions: regression of semi-log cell survival plots, 252Cf neutrons
Protocol: The irradiation was performed by known techniques. The ^252 Cf isotope is a useful source of neutrons for BNCT (Hatanaka 1991, A). The neutron spectrum and beam characteristics are similar to those of reactor fission sources with a most probable energy of about 1 MeV. A 50 mg source of ^252 Cf moderated by water provides a source of 1×10^9 thermal neutrons/cm^2 /sec at a distance of 3 cm (personnel communication Dr. R. Martin). The half-life of ^252 Cf is 2.65 years, thus this provides a simple and reliable source of neutrons for BNCT in locations without suitable nuclear reactors.
This work was performed using sealed ^252 Cf source capsules in a hot cell without transferable radioactive contamination using a double tube arrangement which contained 1.0 ml of A 549 lung cancer cells (maximum cell number 2×10^6 cells/ml and minimum cell number 2×10^3 cells/ml). The cancer cells were exposed to approximately 2×10^8 thermal neutrons per cm^2 per second from 30 mg of ^252 Cf. The flux of neutrons was determined by the irradiation of manganese wire and subsequent analysis of activation. The duration of exposure of cells was 30 sec. 1, 1.5, 2.0 and 4.0 minutes for control groups and boronated compounds. Following radiation exposure, the A 549 lung cancer cells were placed on ice for subculturing and cell survival studies.
All boronated compounds tested worked as agents in boron neutron capture reactions. Cell survival data was calculated from semi-log plots and subjected to a regression analysis to obtain an X coefficient (kill constant) for each compound.

A549 lung cancer cells [4] = assay: Cellular toxicity, colony survival assay in A549 lung cancer cells; conditions: for A549 cell survival (Table 1) / level above which all cell growth is suppressed: seven day experiment
Protocol: (§1) The cells were plated for undisturbed colony growth for seven to ten days and a survival assay was performed. Colonies were washed with isotonic saline and absolute methanol before staining with Giemsa and standard colony counting.

tumor cells [5] = conditions: cited from earlier work; for ratio of boron in tumor cells compared to normal cells: in vivo
[6] = mice receiving the compound; cited from earlier work
[7] = test system: human glioblastoma multiforme (brain) tumors; assay: Boron biodistribution (tumor, normal brain) in mice bearing human glioblastoma multiforme tumors; type: in vivo; conditions: sodium salt
Protocol: The water soluble sodium salt of the boron containing amino carboxylic compound VIII, was injected into four mice bearing human glioblastoma multiforme (brain) tumors on their hind quarter. One animal was sacrificed after 3 hours, 6 hours, 12 hours, and 24 hours and tissue samples were taken from the tumor, normal brain tissue, blood and muscle. At three hours the tumor contained 52 parts per million of boron and the normal brain contained only 7.6 ppm (a ratio of nearly 7:1). At twelve hours the tumor boron concentration was 37 ppm and the normal brain concentration was 3.7 ppm (a ratio of 10:1).

A549 lung cancer cells [8] = conditions: for level above which all cell growth is suppressed: human, 10080 min
Protocol: as §1

| Compound | BNCT treatment outcome (tumor cells [1]) | Atoms of ^10 B in cell (A549 lung cancer cells [2]) | kill constant (absolute value of X coefficient) (A549 lung cancer cells [3]) | A549 cell survival (Table 1) (A549 lung cancer cells [4]; 1.25 μg B/ml) | A549 cell survival (Table 1) (A549 lung cancer cells [4]; 2.5 μg B/ml) | A549 cell survival (Table 1) (A549 lung cancer cells [4]; 5.0 μg B/ml) | A549 cell survival (Table 1) (A549 lung cancer cells [4]; 10.0 μg B/ml) | A549 cell survival (Table 1) (A549 lung cancer cells [4]; 15.0 μg B/ml) | A549 cell survival (Table 1) (A549 lung cancer cells [4]; 20.0 μg B/ml) | also measured |
| --- | --- | --- | --- | --- | --- | --- | --- | --- | --- | --- |
| O=BOB(O)OB(O)OB=O [borax] | treatment failure because of the lack of localization of boron within tumor cells |  |  |  |  |  |  |  |  |  |
| 5(4carboranyl-1-butynyl) uridine [CDU-4] |  | 10 × 10^9 atoms ^10 B/cell | 2.87 | 22 | 69 | 0 | 0 | 0 | 0 | cellular uptake (words) (A549 lung cancer cells [2]): lowest in cellular uptake; level above which all cell growth is suppressed (A549 lung cancer cells [4]): above 2.5 μg B/ml |
| N[C@@H](Cc1ccc(B(O)O)cc1)C(=O)O [BPA, boronophenylalanine] |  |  |  |  |  |  |  |  |  | deleterious effects (tumor cells [5]; compared with porphyrin): without the deleterious effects seen, for example, with porphyrin |
| 2,4-divinyl-nido-o-carboranyldeuteroporphoryin IX [VCDP] |  |  |  |  |  |  |  |  |  | mortality of mice [6]: about 10% |
| O=C(O)c1ccc(B(O)O)cc1 [p-carboxybenzeneboronic acid] | failed due to vascular damage caused by high blood levels of boron |  |  |  |  |  |  |  |  | ratio of boron in tumor cells compared to normal cells (tumor cells [5]): high ratios of boron in tumor cells compared to normal cells |
| 2-amino-5-[2-methyl]-1,2-dicarba-closo-dodecacarboran(12)-1-yl] pentane carboxylic acid [LSK 1-38] |  | 96 × 10^9 atoms ^10 B/cell | 2.64 | 50 | 33 | 18 | 2 | 0 | 0 | cellular uptake (words) (A549 lung cancer cells [2]; listed as LSK1-38): excellent cellular uptake; cellular uptake (words) (A549 lung cancer cells [2]; listed as LSK-138): next highest cellular uptake; toxicity (A549 lung cancer cells [4]; A549 lung cancer cells): low toxicity; level above which all cell growth is suppressed (A549 lung cancer cells [4]): above 10 μg B/ml |
| 1-amino-3-[2-(7-(2-hydroxyethyl)-1,7-dicarba-nido-dodecacaboran(12)-ylethyl]cyclobutanecarboxylic acid [VIII] |  |  |  |  |  |  |  |  |  | normal brain boron concentration ([7]; 3 hours): 7.6 ppm; normal brain boron concentration ([7]; 12 hours): 3.7 ppm; tumor boron concentration ([7]; 3 hours after injection): 52 parts per million; tumor boron concentration ([7]; 12 hours): 37 ppm |
| sodium decahydrodecaborate | failed due to vascular damage caused by high blood levels of boron |  |  |  |  |  |  |  |  | ratio of boron in tumor cells compared to normal cells (tumor cells [5]): high ratios of boron in tumor cells compared to normal cells |
| 5(5carboranyl-1-pentynyl) deoxyuridine [CN-V-264] |  | 50 × 10^9 atoms ^10 B/cell | 2.88 | 10 | 4 | 0 | 0 | 0 | 0 | cellular uptake (words) (A549 lung cancer cells [2]): lowest in cellular uptake; level above which all cell growth is suppressed (A549 lung cancer cells [8]): above 2.5 μg B/ml |
| 1-Amino-3-[2-(1,7 dicarba-closo-dodecacaboran(12)-1-yl)ethyl]cyclobutanecarboxylic acid [ACBC] |  | 2749 × 10^9 atoms ^10 B/cell | 2.71 | 39 | 14 | 8 | 8 | 0 | 0 | cellular uptake (words) (A549 lung cancer cells [2]): greatest cellular uptake; also recorded: almost two orders of magnitude greater in uptake than the other compounds tested; also recorded: excellent cellular uptake; toxicity (A549 lung cancer cells [8]): low toxicity; level above which all cell growth is suppressed (A549 lung cancer cells [8]): above 10 μg B/ml |
| O=BOB1OB2OB([O-])OB(O1)O2.[Na+] [sodium pentaborate] | treatment failure because of the lack of localization of boron within tumor cells |  |  |  |  |  |  |  |  |  |
